Measured values as given in patent publication US10717746B2, “Chemical compounds” (ASTRAZENECA AB, priority 2015, dated 2020).

Experiments:
CDK9/CycT1 [1] = molecular target: T1, CDK9/CycT1 (Homo sapiens (Human), UniProt P50750); assay: CDK9 kinase assay, ATP concentration at Km (mobility shift, Caliper LC3000); format: biochemical; settings: 6 μM ATP, 3 nM CDK9/CycT1; read-out: CDK9 ATP conc. at Km (IC50)
In short: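 3 nM CDK9/CycT1 with 6 µM ATP and 1.5 µM FITC-peptide (HEPES pH 7.2) was preincubated with compound 15 min at 25 °C. Reaction started with 10 mM MgCl2 and ran 90 min at 25 °C. Turnover was measured by mobility-shift separation of phosphorylated and unphosphorylated peptide.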

CDK9/CycT1 [2] = molecular target: T1, CDK9/CycT1; assay: CDK9 kinase assay, high ATP concentration (5 mM ATP); format: biochemical; settings: 1.5 nM CDK9, read-out: CDK9 High ATP conc. (IC50)
In short: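 Caliper mobility-shift read-out of phosphorylated vs unphosphorylated FITC-peptide (1.5 μM), giving percent turnover. Final 1.5 nM CDK9/CycT1 and 5 mM ATP in 50 mM HEPES pH 7.2, 1 mM DTT, 10 mM MgCl2; compound preincubated 15 min, reaction 90 min at 25° C, stopped with EDTA.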

[3] = system: phosphorylation of RNA Polymerase II (RNAPII) at the Ser2 site in MCF7 cells; assay: MCF7 pSer2 RNAPII MOA assay (immunofluorescence); format: cell-based; settings: Homo sapiens, MCF7, 6 h, 6-hr treatment, read-out: p-Ser 2 RNAPII (IC50)
In short: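 MCF7 cells (2500/well), plated overnight, were treated for 6 h at 37° C. with CDK9 inhibitors in a 7-point dose response from 3 μM to 0.004 μM. Cells were then fixed, permeabilized and immunostained for Ser2-phospho RNAPII with Alexa Fluor 488 secondary plus DAPI. Per-well phosphorylation was read by microplate cytometry.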

MV411 cells = assay: MV411 caspase activity assay (Caspase-Glo 3/7); format: cell-based; settings: Homo sapiens, MV4-11, 6 h, 6-hr treatment, caspase 3/7 induction
In short: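 MV411 AML cells (3000/well) were plated overnight, then treated with compound for 6 h at 37 °C. Caspase-3/7 activity was read as luminescence after 30 min with Caspase-Glo 3/7 reagent at room temperature.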

T1 sequence (P50750 whole entry): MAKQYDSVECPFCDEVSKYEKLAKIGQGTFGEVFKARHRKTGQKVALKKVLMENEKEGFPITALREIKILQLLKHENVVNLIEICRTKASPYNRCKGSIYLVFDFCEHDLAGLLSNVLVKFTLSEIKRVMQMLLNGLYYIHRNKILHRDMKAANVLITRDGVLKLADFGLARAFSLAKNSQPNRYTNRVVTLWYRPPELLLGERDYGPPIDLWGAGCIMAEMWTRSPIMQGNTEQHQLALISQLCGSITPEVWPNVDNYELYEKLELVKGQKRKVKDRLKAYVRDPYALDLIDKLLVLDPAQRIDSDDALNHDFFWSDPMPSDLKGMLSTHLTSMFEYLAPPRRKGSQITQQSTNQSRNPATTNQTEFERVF
T1 sequence (O60563 whole entry partner): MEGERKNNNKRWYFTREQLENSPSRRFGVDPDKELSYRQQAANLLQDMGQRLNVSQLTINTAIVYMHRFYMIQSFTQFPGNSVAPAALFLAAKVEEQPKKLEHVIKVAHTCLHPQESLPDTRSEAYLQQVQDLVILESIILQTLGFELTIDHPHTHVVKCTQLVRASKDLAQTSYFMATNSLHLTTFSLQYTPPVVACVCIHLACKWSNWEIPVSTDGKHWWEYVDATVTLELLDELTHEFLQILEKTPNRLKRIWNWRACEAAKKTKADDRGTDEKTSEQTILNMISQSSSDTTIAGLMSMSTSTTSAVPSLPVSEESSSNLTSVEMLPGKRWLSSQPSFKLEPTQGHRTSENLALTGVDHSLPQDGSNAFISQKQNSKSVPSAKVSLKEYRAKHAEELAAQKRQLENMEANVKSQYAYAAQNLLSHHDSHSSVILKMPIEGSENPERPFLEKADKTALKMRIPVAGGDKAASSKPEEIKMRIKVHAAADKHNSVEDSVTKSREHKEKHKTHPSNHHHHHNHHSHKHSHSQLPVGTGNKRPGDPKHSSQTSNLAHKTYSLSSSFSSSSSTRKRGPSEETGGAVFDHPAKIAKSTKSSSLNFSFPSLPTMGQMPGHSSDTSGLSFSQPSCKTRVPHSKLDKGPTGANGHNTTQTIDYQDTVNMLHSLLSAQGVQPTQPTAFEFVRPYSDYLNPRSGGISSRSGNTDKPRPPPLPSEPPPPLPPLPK

Row | Structure (SMILES) | IC50 (CDK9/CycT1 [1]) [nM] | IC50 (CDK9/CycT1 [2]) [nM] | IC50 [3] [nM] | IC50 (MV411 cells) [nM]
1 | O=C(Nc1cc(-c2cnn3c2CCCC3)c(Cl)cn1)[C@H]1CCC[C@@H](NC(=O)[C@H]2CCCO2)C1 [Example 36, (R)—N-((1R,3S)-3-((5-chloro-4-(4,5,6,7-tetrahydropyrazolo[1,5-a]pyridin-3-yl)pyridin-2-yl)carbamoyl)cyclohexyl)tetrahydrofuran-2-carboxamide] | < 3 | 39 | 38 | 104
2 | C[C@H](O)C(=O)N[C@@H]1CCC[C@H](C(=O)Nc2cc(-c3cnn4c3CCCC4)c(Cl)cn2)C1 [Example 37, (1S,3R)—N-(5-chloro-4-(4,5,6,7-tetrahydropyrazolo[1,5-a]pyridin-3-yl)pyridin-2-yl)-3-((S)-2-hydroxypropanamido)cyclohexanecarboxamide] | < 3 | 38 | 149 | 177
3 | O=C(Nc1cc(-c2cnn3c2CCCC3)c(Cl)cn1)[C@H]1CCC[C@@H](NC(=O)[C@H]2CCOC2)C1 [Example 38, (S)—N-((1R,3S)-3-((5-chloro-4-(4,5,6,7-tetrahydropyrazolo[1,5-a]pyridin-3-yl)pyridin-2-yl)carbamoyl)cyclohexyl)tetrahydrofuran-3-carboxamide] | < 3 | 28 | 123 | 139
4 | CC(=O)N[C@@H]1CCC[C@H](C(=O)Nc2cc(-c3cnn4c3CC(C)(C)C4)c(C#N)cn2)C1 [Example 39, (1S,3R)-3-acetamido-N-(5-cyano-4-(5,5-dimethyl-5,6-dihydro-4H-pyrrolo[1,2-b]pyrazol-3-yl)pyridin-2-yl)cyclohexanecarboxamide] | < 3 | 62 | 147 | 145
5 | CC(=O)N[C@@H]1CCC[C@H](C(=O)Nc2cc(-c3cnn4c3CC(C)C4)c(Cl)cn2)C1 (stereo partly drawn) [Example 40, (1S,3R)-3-acetamido-N-(5-chloro-4-(5-methyl-5,6-dihydro-4H-pyrrolo[1,2-b]pyrazol-3-yl)pyridin-2-yl)cyclohexanecarboxamide] | < 3 | 28 | 57 | 67
6 | CC(=O)N[C@@H]1CCC[C@H](C(=O)Nc2cc(-c3cnn4c3CC(C)(C)CC4)ccn2)C1 [Example 44, (1S,3R)-3-acetamido-N-(4-(5,5-dimethyl-4,5,6,7-tetrahydropyrazolo[1,5-a]pyridin-3-yl)pyridin-2-yl)cyclohexanecarboxamide] | < 3 | 8 | 48 | 39
7 | CC1(C)Cc2c(-c3cc(NC(=O)[C@H]4CCC[C@@H](NC(=O)[C@@H]5CCCO5)C4)ncc3Cl)cnn2C1 [Example 45, (S)—N-((1R,3S)-3-((5-chloro-4-(5,5-dimethyl-5,6-dihydro-4H-pyrrolo[1,2-b]pyrazol-3-yl)pyridin-2-yl)carbamoyl)cyclohexyl)tetrahydrofuran-2-carboxamide] | < 3 | < 4 | 12 | 8
8 | CC1(C)Cc2c(-c3cc(NC(=O)[C@H]4CCC[C@@H](NC(=O)[C@H]5CCCO5)C4)ncc3Cl)cnn2C1 [Example 46, (R)—N-((1R,3S)-3-((5-chloro-4-(5,5-dimethyl-5,6-dihydro-4H-pyrrolo[1,2-b]pyrazol-3-yl)pyridin-2-yl)carbamoyl)cyclohexyl)tetrahydrofuran-2-carboxamide] | < 3 | < 4 | 9 | 12
9 | CC(=O)N[C@@H]1CC[C@H](C(=O)Nc2cc(-c3cnn4c3CC(C)(C)C4)c(Cl)cn2)C1 [Example 48, (1S,3R)-3-acetamido-N-(5-chloro-4-(5,5-dimethyl-5,6-dihydro-4H-pyrrolo[1,2-b]pyrazol-3-yl)pyridin-2-yl)cyclopentanecarboxamide] | < 3 | 3 | 40 | 15
10 | CC(=O)N[C@@H]1CCC[C@H](C(=O)Nc2cc(-c3nnn4c3CCCC4)c(Cl)cn2)C1 [Example 49, (1S,3R)-3-acetamido-N-(5-chloro-4-(4,5,6,7-tetrahydro-[1,2,3]triazolo[1,5-a]pyridin-3-yl)pyridin-2-yl)cyclohexanecarboxamide] | 39 | 4400 | > 2870 | 7980
11 | CC(=O)N[C@@H]1CCC[C@H](C(=O)Nc2cc(-c3cnc4n3CC(C)(C)C4)c(F)cn2)C1 [Example 50, (1S,3R)-3-acetamido-N-(4-(6,6-dimethyl-6,7-dihydro-5H-pyrrolo[1,2-a]imidazol-3-yl)-5-fluoropyridin-2-yl)cyclohexanecarboxamide] | < 3 | 5 | 19 | 26
12 | CC(=O)N[C@@H]1CCC[C@H](C(=O)Nc2cc(-c3cnn4c3CC(C)(C)CC4)c(F)cn2)C1 [Example 51, (1S,3R)-3-acetamido-N-(4-(5,5-dimethyl-4,5,6,7-tetrahydropyrazolo[1,5-a]pyridin-3-yl)-5-fluoropyridin-2-yl)cyclohexanecarboxamide] | < 3 | < 3 | 10 | 15
13 | CC1(C)CCn2ncc(-c3cc(NC(=O)[C@H]4CCC[C@@H](N)C4)ncc3F)c2C1 [Example 51a, (1S,3R)-3-amino-N-(4-(5,5-dimethyl-4,5,6,7-tetrahydropyrazolo[1,5-a]pyridin-3-yl)-5-fluoropyridin-2-yl)cyclohexanecarboxamide] | < 3 | 148 | 292 | 228
14 | CC1(C)Cc2c(-c3cc(NC(=O)[C@H]4CCC[C@@H](NC(=O)[C@H]5C[C@@H](O)C5)C4)ncc3Cl)cnn2C1 [Example 53, (1S,3R)—N-(5-chloro-4-(5,5-dimethyl-5,6-dihydro-4H-pyrrolo[1,2-b]pyrazol-3-yl)pyridin-2-yl)-3-(cis-3-hydroxycyclobutanecarboxamido)cyclohexanecarboxamide] | < 3 | < 3 | 12 | 13
15 | CC1(C)Cc2c(-c3cc(NC(=O)[C@H]4CCC[C@@H](N)C4)ncc3F)cnn2C1 [Example 54, (1S,3R)-3-amino-N-(4-(5,5-dimethyl-5,6-dihydro-4H-pyrrolo[1,2-b]pyrazol-3-yl)-5-fluoropyridin-2-yl)cyclohexane-1-carboxamide] | 10 | 777 | 455 | 431
16 | CC1(C)Cc2c(-c3cc(NC(=O)[C@H]4CCC[C@@H](NC(=O)C5(O)CC5)C4)ncc3F)cnn2C1 [Example 55, (1S,3R)—N-(4-(5,5-dimethyl-5,6-dihydro-4H-pyrrolo[1,2-b]pyrazol-3-yl)-5-fluoropyridin-2-yl)-3-(1-hydroxycyclopropanecarboxamido)cyclohexanecarboxamide] | < 3 | < 3 | 7 | 10
17 | CC1(C)Cc2ncc(-c3cc(NC(=O)[C@H]4CCC[C@@H](NC(=O)C5(O)CC5)C4)ncc3Cl)n2C1 [Example 56, (1S,3R)—N-(5-chloro-4-(6,6-dimethyl-6,7-dihydro-5H-pyrrolo[1,2-a]imidazol-3-yl)pyridin-2-yl)-3-(1-hydroxycyclopropanecarboxamido)cyclohexanecarboxamide] | < 3 | 4 | 29 | 22
